Laboratory results published in ChEMBL document CHEMBL1201862, “PubChem BioAssay data set” (2004).
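Growth conditions: 96-well plates. Treatment: test compound, 48 hours, 5 concentrations. Analysis: linear interpolation between bracketing concentrations; unreached endpoints set to highest concentration. Here, GI50 denotes the concentration required for 50% inhibition of growth.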 Calls of active or inactive are those of the source. Rule as the data show it: active = GI50 up to about 1.1 µM and inactive = higher.

Assays:
Assay in all cases: inhibition of tumour cell growth, NCI panel, 48 h
[1] = test system: K562
[2] = test system: SNB-75
[3] = test system: HOP-62
[4] = test system: SF-268
[5] = test system: OVCAR-4
[6] = test system: SK-MEL-28
[7] = test system: SR
[8] = test system: RPMI-8226
[9] = test system: LOX IMVI
[10] = test system: HT-29
[11] = test system: NCI-H460
[12] = test system: HOP-92
[13] = test system: OVCAR-8
[14] = test system: COLO 205
[15] = test system: SW-620
[16] = test system: Malme-3M
[17] = test system: EKVX
[18] = test system: M14
[19] = test system: A498
[20] = test system: U-251

Row | Structure (SMILES) | GI50 [1] | GI50 [2] | GI50 [3] | GI50 [4] | GI50 [5] | GI50 [6] | GI50 [7] | GI50 [8] | GI50 [9] | GI50 [10] | GI50 [11] | GI50 [12] | GI50 [13] | GI50 [14] | GI50 [15] | GI50 [16] | GI50 [17] | GI50 [18] | GI50 [19] | GI50 [20]
1 | CCOC(=O)c1c(N2CCCC2)[nH]c(=O)c(C(c2cccs2)c2c(O)c(C(=O)OCC)c(N3CCCC3)[nH]c2=O)c1O | > 100 µM (inactive) | > 100 µM (inactive) | > 100 µM (inactive) | > 100 µM (inactive) | > 100 µM (inactive) | > 100 µM (inactive) | > 100 µM (inactive) | 54.6 µM (inactive) | > 100 µM (inactive) | > 100 µM (inactive) | > 100 µM (inactive) | > 100 µM (inactive) | > 100 µM (inactive) | > 100 µM (inactive) | > 100 µM (inactive) | > 100 µM (inactive) | > 100 µM (inactive) | > 100 µM (inactive) | > 100 µM (inactive) | > 100 µM (inactive)
2 | Cc1nc2ccc(S(=O)(=O)NS(=O)(=O)c3ccc(-c4ccccc4)cc3)cc2c(=O)n1NS(=O)(=O)c1ccc(-c2ccccc2)cc1 | > 100 µM (inactive) | > 100 µM (inactive) | > 100 µM (inactive) | > 100 µM (inactive) | 60 µM (inactive) | > 100 µM (inactive) | > 100 µM (inactive) | > 100 µM (inactive) | > 100 µM (inactive) | > 100 µM (inactive) | > 100 µM (inactive) | 23.4 µM (inactive) | 77.4 µM (inactive) | > 100 µM (inactive) | > 100 µM (inactive) | > 100 µM (inactive) | 68.2 µM (inactive) | > 100 µM (inactive) | 0.753 µM (active) | > 100 µM (inactive)
3 | [O-][S+]1c2ccccc2N=C(c2ccc(Cl)cc2)CC1c1cccs1 (stereo not given) | 9.25 µM (inactive) | 46.7 µM (inactive) | 79.3 µM (inactive) | 29.2 µM (inactive) | 11 µM (inactive) | 19.3 µM (inactive) | 7.01 µM (inactive) | 17 µM (inactive) | 12.6 µM (inactive) | 17.3 µM (inactive) | 36.8 µM (inactive) | 19.7 µM (inactive) | 17.8 µM (inactive) | 20 µM (inactive) | 14.4 µM (inactive) | 57.8 µM (inactive) | 35.4 µM (inactive) | 15.5 µM (inactive) | 97.1 µM (inactive) | 15.5 µM (inactive)
4 | Cc1ccc(C(=O)N/N=C2/C(=O)c3c4ccccc4cc4cccc2c34)cc1 | > 21.1 µM (inactive) | 26.7 µM (inactive) | 16.2 µM (inactive) | 18.7 µM (inactive) | 18.2 µM (inactive) | 17.7 µM (inactive) | 1.99 µM (inactive) | 22 µM (inactive) | 12.4 µM (inactive) | 21.6 µM (inactive) | 15 µM (inactive) | 46.6 µM (inactive) | 22.4 µM (inactive) | 31.3 µM (inactive) | 8.71 µM (inactive) | 18.8 µM (inactive) | 40.2 µM (inactive) | 31.4 µM (inactive) | > 100 µM (inactive) | 21 µM (inactive)
5 | C=COC(=O)N1C2CCCC(Cl)(C(C)=O)C1CC2 (stereo not given) | > 100 µM (inactive) | 28.2 µM (inactive) | > 100 µM (inactive) | 66.1 µM (inactive) | > 100 µM (inactive) | > 100 µM (inactive) | > 100 µM (inactive) | > 100 µM (inactive) | > 100 µM (inactive) | > 100 µM (inactive) | > 100 µM (inactive) | > 100 µM (inactive) | > 100 µM (inactive) | > 100 µM (inactive) | > 100 µM (inactive) | 87.5 µM (inactive) | > 100 µM (inactive) | > 100 µM (inactive) | > 100 µM (inactive) | > 100 µM (inactive)
6 | O=C1c2cc3c(cc2CC12Cc1cc4c(cc1C2)CCC4)CCC3 | 27 µM (inactive) | > 100 µM (inactive) | > 100 µM (inactive) | > 100 µM (inactive) | > 100 µM (inactive) | > 100 µM (inactive) | > 100 µM (inactive) | > 100 µM (inactive) | > 100 µM (inactive) | 93.8 µM (inactive) | > 100 µM (inactive) | > 100 µM (inactive) | > 100 µM (inactive) | > 100 µM (inactive) | > 100 µM (inactive) | > 100 µM (inactive) | > 100 µM (inactive) | > 100 µM (inactive) | > 100 µM (inactive) | > 100 µM (inactive)
7 | C=CCSc1nnc2cc(CN3CCCC3)c(-c3ccc(Cl)cc3)nn12 | 34.7 µM (inactive) | 19.9 µM (inactive) | 20.7 µM (inactive) | 20.8 µM (inactive) | 20.3 µM (inactive) | 20 µM (inactive) | 32.6 µM (inactive) | 39.1 µM (inactive) | 20.4 µM (inactive) | 15 µM (inactive) | 17.9 µM (inactive) | 16.1 µM (inactive) | 23.3 µM (inactive) | 17.6 µM (inactive) | 26.5 µM (inactive) | 22.6 µM (inactive) | 19 µM (inactive) | 18.1 µM (inactive) | 15.9 µM (inactive) | 17.5 µM (inactive)
8 | Brc1nc2c3ccccc3ncn2c1Br | 31.3 µM (inactive) | 20.1 µM (inactive) | 44.6 µM (inactive) | 82.6 µM (inactive) | 16 µM (inactive) | 82 µM (inactive) | 19.4 µM (inactive) | 23.4 µM (inactive) | 19 µM (inactive) | 29.3 µM (inactive) | 34.2 µM (inactive) | 27.9 µM (inactive) | 42.7 µM (inactive) | 16.3 µM (inactive) | 36.6 µM (inactive) | 13.3 µM (inactive) | 21.1 µM (inactive) | 38.5 µM (inactive) | 43.5 µM (inactive) | 28.8 µM (inactive)
9 | Cc1cc2c(cc1C(=O)CCC(=O)O)CC1(C2)Cc2cc(C)c(C(=O)CCC(=O)O)cc2C1 | > 100 µM (inactive) | 90.6 µM (inactive) | > 100 µM (inactive) | > 100 µM (inactive) | > 100 µM (inactive) | > 100 µM (inactive) | > 100 µM (inactive) | > 100 µM (inactive) | > 100 µM (inactive) | > 100 µM (inactive) | > 100 µM (inactive) | > 100 µM (inactive) | > 100 µM (inactive) | > 100 µM (inactive) | > 100 µM (inactive) | > 100 µM (inactive) | > 100 µM (inactive) | > 100 µM (inactive) | > 100 µM (inactive) | > 100 µM (inactive)
10 | CC1=C(C(=O)Nc2ccc(Cl)c(Cl)c2)C(c2ccc([N+](=O)[O-])cc2)C(C(=O)Nc2ccc(Cl)c(Cl)c2)=C(C)N1 | 1.07 µM (active) | 3.84 µM (inactive) | 2.54 µM (inactive) | 3.38 µM (inactive) | 2.64 µM (inactive) | 2.44 µM (inactive) | 0.179 µM (active) | 1.45 µM (inactive) | 2.06 µM (inactive) | 2.42 µM (inactive) | 2.41 µM (inactive) | 2.4 µM (inactive) | 2.13 µM (inactive) | 1.71 µM (inactive) | 3.05 µM (inactive) | 2.57 µM (inactive) | 3.13 µM (inactive) | 1.85 µM (inactive) | 3.32 µM (inactive) | 2.49 µM (inactive)
11 | O=C(CCN1CCN2c3ccccc3CCC2C1)c1ccc(F)cc1 (stereo not given) | 30.2 µM (inactive) | 27.2 µM (inactive) | 23.8 µM (inactive) | 46.9 µM (inactive) | 20 µM (inactive) | 14.7 µM (inactive) | 28.4 µM (inactive) | 28.9 µM (inactive) | 30.1 µM (inactive) | 18.8 µM (inactive) | 47.1 µM (inactive) | 33.9 µM (inactive) | 41.5 µM (inactive) | 22 µM (inactive) | 10.3 µM (inactive) | 25.1 µM (inactive) | 27.5 µM (inactive) | 49.7 µM (inactive) | > 100 µM (inactive) | 27.8 µM (inactive)
12 | COc1ccc(/C=C2/SC(c3c(O)ccc4ccccc34)N(NC(=O)CCCCCCCCC(=O)NN3C(=O)/C(=C\c4ccc(OC)c(OC)c4)SC3c3c(O)ccc4ccccc34)C2=O)cc1OC (stereo not given) | 1.2 µM (inactive) | 8.53 µM (inactive) | 0.65 µM (active) | 0.418 µM (active) | 1.64 µM (inactive) | 2.98 µM (inactive) | 0.0962 µM (active) | 0.995 µM (active) | 0.394 µM (active) | 3.65 µM (inactive) | 0.649 µM (active) | 1.09 µM (active) | 0.553 µM (active) | 3.15 µM (inactive) | 1.53 µM (inactive) | 2 µM (inactive) | 2.12 µM (inactive) | 0.897 µM (active) | 7.6 µM (inactive) | 1.26 µM (inactive)
13 | O=C1OC(c2cccc(C(F)(F)F)c2)(c2cccc(C(F)(F)F)c2)c2ccc3ccccc3c21 | 8.04 µM (inactive) | > 10 µM (inactive) | > 10 µM (inactive) | 9.59 µM (inactive) | > 10 µM (inactive) | > 10 µM (inactive) | > 10 µM (inactive) | 4.24 µM (inactive) | > 10 µM (inactive) | > 10 µM (inactive) | > 10 µM (inactive) | 28.8 µM (inactive) | > 10 µM (inactive) | > 10 µM (inactive) | > 10 µM (inactive) | 4.79 µM (inactive) | > 10 µM (inactive) | > 10 µM (inactive) | > 10 µM (inactive) | 8.39 µM (inactive)
14 | Cc1c(N(C)C)ccc2c(=O)c3cccc(CC(=O)O)c3oc12 | > 100 µM (inactive) | > 100 µM (inactive) | > 100 µM (inactive) | > 100 µM (inactive) | > 100 µM (inactive) | > 100 µM (inactive) | > 100 µM (inactive) | > 100 µM (inactive) | > 100 µM (inactive) | > 100 µM (inactive) | > 100 µM (inactive) | > 64.9 µM (inactive) | > 100 µM (inactive) | > 100 µM (inactive) | > 33.3 µM (inactive) | > 100 µM (inactive) | > 100 µM (inactive) | > 100 µM (inactive) | > 81.8 µM (inactive) | > 100 µM (inactive)
